# Data published in patent publication US20210181179A1, “DIAGNOSIS AND TREATMENT OF IMMUNOTHERAPY-INDUCED NEUROTOXICITY” (MEMORIAL SLOAN KETTERING CANCER CENTER, priority 2018, published 2021).
# Experiments:
# [1] = system: HMC3 microglial cell line; assay: RT-PCR of cytokines and chemokines in microglial cells; assay type: cell-based, human; settings: for key chemokines, including CCL2, CXCL9 and CXCL10, and cytokine IL1beta: monocyte and microglial cell activation
# Description: FIGS. 19A-E. Kynurenine metabolites contribute to CRS. (FIG. 19A-B) RT-PCR analysis of cytokines and chemokines that lead to myeloid cell activation in response to kynurenine metabolites exposure. ([…]) Western blot analysis of HMC3 microglial cell line in response to kynurenine metabolites exposure. (FIGS. 19D-E.) RT-PCR analysis of cytokines and chemokines in response to exposure to cytokines shown (TNF, Il1β, IFNγ).
# CCL2 (MCP1) and CXCL10 (IP10) serve as chemo-attractants for myeloid and T cells, while CXCL9 (MIG) is a potent T cell chemoattractant. […] We confirmed Il1β protein production in response to Il1β stimulation (FIG. 19C). Il1β production was dependent on Ahr activity, as addition of an Ahr antagonist blocked up-regulation of Il1β. Il1β is a strong inducer of microglial activation.
# [2] = system: adult patients with CD19+B-ALL; assay: Management of neurotoxicity and CRS (tocilizumab, corticosteroid, seizure prophylaxis) in the 19-28z CAR T cell trial; assay type: in vivo, human
# Description: The anti-IL-6 receptor monoclonal antibody, tocilizumab, with or without corticosteroid is often used to mitigate CRS and neurotoxicity. Six (18%) of 33 patients with neurotoxicity received tocilizumab alone; 14 (42%) received tocilizumab plus corticosteroid; 4 (12%) received corticosteroid alone; and 9 (27%) received neither tocilizumab nor corticosteroid (FIG. 6/Supplementary Fig. S1). In the 16 patients with severe neurotoxicity who received tocilizumab, 9 (56.3%) had peak neurotoxicity after the first dose of tocilizumab whereas 7 (43.7%) had peak neurotoxicity prior to or on the day of tocilizumab administration. […] The time from first tocilizumab and/or steroid dose to resolution of neurotoxicity (median, 9 days; range 4-21 days) was longer than the time to resolution of CRS (median, 1 day; range 0-3 days; P<0.001), confirming previous findings that neurotoxicity is less responsive than CRS to these treatment interventions.
# Toxicity assessment: CRS was graded according to the MSKCC CRS grading system. Severe CRS was defined as ≥grade 3. Neurotoxicity was prospectively graded according to National Cancer Institute common terminology criteria for adverse events (CTCAE) v4.03 by the principal investigator (P). An independent retrospective review of the electronic medical record was performed by a neurologist (BS) who assigned daily neurotoxicity grades to the AE terms according to CTCAE v4.03. Discrepancies were adjudicated by consensus review. All patients developing neurologic symptoms were evaluated by the neurology consult service and followed with daily neurologic assessments until neurologic symptom resolution. Severe neurotoxicity was defined as ≥grade 3 toxicity with the exception that any seizure (including grade 1 or 2 by CTCAE criteria) was included as severe neurotoxicity.
# NMDA receptors = assay: Western blot of HCN2 neurons for NMDA receptor activation (p-CREB, p-Erk); assay type: cell-based; settings: 30 min, cytokines applied via culture filtrates of stimulated HMC3 microglia
# Description: FIGS. 18A-B. Western blot analysis of HCN2 neurons showing NMDA receptor activation through increase in p-CREB levels in response to exposure to conditioned media. The conditioned media was produced by microglia and monocytes treated with cytokines to stimulate quinolinic acid (QUIN) production (FIG. 18A). This effect can be blocked with the use of IDO and AhR inhibitors (FIG. 18B) that block either kynurenine metabolite production or signaling.
# QUIN binds directly to NMDA receptors, and leads to Ca^2+ influx, followed by activation cascade through Erk kinase phosphorylation and eventual phosphorylation of CREB transcription factor. In order to test if microglial cell derived QUIN is sufficient to activate NMDA receptors, we performed a co-culture experiment. Culture filtrates from an HMC3 microglial cell line were stimulated with IFNγ, Il1β, or combination of both, and were layered over HCN2 cortical neurons for 30 min, after which the cells were lysed and tested for downstream effectors of NMDA receptor activation.
# [3] = early intervention strategy; cited from earlier work
compound,measurement,setting,value
"O=C(O)c1cc(=O)c2ccccc2[nH]1 [KA, kynurenic acid]","key chemokines, including CCL2, CXCL9 and CXCL10, and cytokine IL1beta",[1],up-regulation
Nc1ccccc1C(=O)CC(N)C(=O)O (centres unmarked) [kynurenine],production of chemokines and cytokines on co-incubation,"[1]; microglial cells, RT-PCR","induced production of several chemokines (CCL2, CXCL9, CXCL10) and cytokines, most notably Il1β"
same,"key chemokines, including CCL2, CXCL9 and CXCL10, and cytokine IL1beta",[1],up-regulation
CC[C@@H](C(N)=O)N1CCCC1=O [levetiracetam],patients who developed seizure despite levetiracetam prophylaxis,[2]; seizure prophylaxis,14 patients
O=C(O)c1cccnc1C(=O)O [quinolinic acid],p-CREB and p-Erk in cortical neurons,NMDA receptors,p-CREB and p-Erk upregulation
Il1beta: cytokine,monocyte attracting factors in response to Il1b,[1]; RT-PCR,"strong upregulation of monocyte attracting factors, CCL2, CXCL9 and CXCL19"
same,p-CREB and p-Erk in cortical neurons,NMDA receptors,p-CREB and p-Erk upregulation
tocilizumab,frequency of severe neurotoxicity,[3],did not affect the frequency of severe neurotoxicity
same,rate of severe CRS,[3],decreased the rate of severe CRS
same,patients with peak neurotoxicity prior to or on the day of tocilizumab administration,[2]; 7 of 16 patients with severe neurotoxicity who received tocilizumab,43.7%
same,patients with peak neurotoxicity after the first dose of tocilizumab,[2]; 9 of 16 patients with severe neurotoxicity who received tocilizumab,56.3%
same,response of neurotoxicity to tocilizumab administration,[2]; in most patients,did not respond
same,time from first tocilizumab and/or steroid dose to resolution of CRS (median),[2]; range 0-3 days,1 days
same,time from first tocilizumab and/or steroid dose to resolution of neurotoxicity (median),[2]; range 4-21 days,9 days
same,serum IL6 after tocilizumab administration,[2]; serum,transient increase of serum IL6
same,effect on CRS,[2]; tocilizumab therapy alone,readily improved CRS
same,effect on neurologic symptoms,[2]; tocilizumab therapy alone,did not ameliorate neurologic symptoms
